One may read the NOAEL as the highest tested level that showed no adverse finding.

The source of these data is EPA's ToxValDB 9.5 (doi:10.2903/j.efsa.2006.66r).

One data set concerns Canidae. The note with it: subchronic; duration: 90 days; oral; Dog Other; neurology.
The next data set has as its system Colinus virginianus. The settings on record: reproduction developmental; duration: 21 weeks; oral; diet; reproduction.
Another data set relates to Daphnia magna. The settings on record: chronic/long-term; duration: 21 days; reproduction.
The subject of a further data set is Oncorhynchus mykiss. The note with it: chronic/long-term; duration: 21 days; mortality.
A further data set has as its system Poecilus cupreus. The note with it: not reported; mortality.
A further data set concerns Rattus norvegicus. The note with it: for NOAEL: neurology.
For another data set, the system named is Tagia sp. The note with it: chronic/long-term; duration: 56 days.

Take `CCCSP(=O)(OCC)SCCC` [Ethoprop]: the no-observed-adverse-effect level (NOAEL) was determined as 0.1 mg/kg-day in the data set on Canidae; 1 mg/kg-day in the data set on Rattus norvegicus (acute, oral); 0.04 mg/kg-day in the data set on Rattus norvegicus (chronic, duration: 2 years); 0.1 mg/kg-day in the data set on Rattus norvegicus (short-term, duration: 28 days, oral). Further, the NOEC was less than 0.6 mg/kg-day in the data set on Colinus virginianus, 0.002 mg/L in the data set with Daphnia magna, 0.064 mg/L with Oncorhynchus mykiss and less than 1.67 mg/kg in the data set with Tagia sp.. Further, the LEL in the data set on Poecilus cupreus turned out to be 7000 g/ha. Besides, the NOEL with Rattus norvegicus (reproduction developmental, reproduction) was determined as 1.3 mg/kg-day.
